{
  "source": "patent US20110230447A1",
  "about": "“OSTEOGENESIS PROMOTER COMPRISING [4-(METHYLTHIO)PHENYLTHIO]METHANEBISPHOSPHONIC ACID OR PHARMACEUTICALLY ACCEPTABLE SALT THEREOF AS ACTIVE INGREDIENT” (Tohoku University, priority 2008, published 2011)",
  "key": {"[1]": {"system": "calvariae (bone organ culture system of a mouse)", "test": "Bone organ culture system of mouse calvariae, staining and confocal laser scanning microscopy", "format": "cell-based", "conditions": "for bone resorption resulting from LPS, size of the resorption cavity: Nomarski images; for production of collagen (type I collagen fibers): MPMBP 100 μM, alendronate 2.0 μM, no heparin, vs control bone (FIG. 9); for production of the type I collagen / bone matrix: zoledronate 2.5 μM compared with MPMBP, presence or absence of LPS (FIG. 8)", "experimental": "Using the bone organ culture system, what kind of effects MPMBP has on production of the bone matrix was studied. From 3-6 day old mice, calvariae were collected aseptically. These were cultured using the Stern and Krieger method (Calcif Tissue hit 1983; 35: 172-17) with DMEM (10% bovine serum supplementation, no supplementation of heparin, supplementation or no supplementation of LPS 10 μg/ml) for 48 hours. After completion of culturing, with the method described by Suzuki, Takeyama et al (J Histochem Cytochem 2005; 53: 1525-1537), a double staining of the type I collagen and alkaline phosphatase (FIG. 6 and FIG. 8), a double staining of the type I collagen and alizarin red (FIG. 7), and an immunohistochemical staining using the type I collagen (FIG. 9) were performed, and using a confocal laser scanning microscope, they were observed.\nThe upper panels are Nomarski differential interference contrast images of the bone surface. The middle panels are images of the bone surface after the double staining of the type I collagen and alkaline phosphatase was performed, and the lower panels are images of the bone section after the double staining of the type I collagen and alkaline phosphatase was performed, respectively. Using rhodamine for the type I collagen, red color could be observed, and using a substrate (ELF-97) that fluoresces when dephosphorylated for alkaline phosphatase (stain osteoblasts), the enzyme activity could be observed in green color.\nThe upper panels are Nomarski differential interference contrast images of the bone surface. […] The lower panels are images of the bone section after the double staining of the type I collagen and alizarin red was performed, and the collagen fibers could be observed in green color resulting from Alexa Fluor-488 and the bone mineral could be observed in red color resulting from alizarin red.\nAfter the immunological double staining of the type I collagen and alkaline phosphatase was performed, as was the case with FIG. 6, using Alexa Fluor 594 for the type I collagen, it was stained in red color, and using the substrate (ELF-97) that fluoresces when dephosphorylated for alkaline phosphatase (osteoblasts), the enzyme activity was stained in green color. The upper panels are observation images of the bone surface and the lower panels are images of the bone section."}, "MC3T3-E1 cells [2]": {"system": "MC3T3-E1 cells", "test": "Alkaline phosphatase (ALP) activity in osteoblast-like MC3T3-E1 cells", "format": "cell-based, mouse", "experimental": "FIG. 4 is an effect of MPMBP (1, 10, and 100 μM) on the osteoblast lineage cell lines MC3T3-E1 cells.\nFIG. 5 is an effect of bisphosphonate ([…] bisphosphonate, namely pamidronate, incadronate, and zoledronate. Respectively, 0.1, 1, and 10 μM) on the osteoblast-like cell line MC3T3-E1 cells.\nUsing the mouse skull-derived osteoblast-like cell line MC3T3-E1 cells (RIKEN Bio Resource Center, CELL BANK: RCB 1126), with respect to the alkaline phosphatase (ALP) activity, known as one index of osteogenesis, and also known as the index of differentiation of osteoblast precursor cells to osteoblasts, what kind of effects MPMBP has was studied. After MC3T3-E1 cells were cultured in a α-MEM (10% bovine serum supplementation) and after the confluent was reached, under the presence or absence of MPMBP (1, 10, and 100 μM), for 6, 10, or 20 days, they were cultured in the culture plate of 48 wells. After completion of culturing, a cell homogenate was prepared, and using the method by Lowry et al (J Biochem 1954; 207: 19-37), the ALP activity (per well) was measured."}, "MC3T3-E1 cells [3]": {"system": "MC3T3-E1 cells", "test": "Expression of osteogenesis-related genes in MC3T3-E1 cells by real-time RT-PCR", "format": "cell-based, mouse", "excerpt": "As an experiment to clarify the mechanism of the osteogenesis promoting action of MPMBP, using the osteoblast-based cell line MC3T3-E1 cells, the effect on expression of osteogenesis-related genes was studied using the real-time RT-PCR method. Moreover, the effect was compared with the action of zoledronate.\nIn the experiment, the osteoblast-based cell line MC3T3-E1 cells that reached the confluent after cultured with α-MEM (10% bovine serum supplementation) were used. For 3 days, they were cultured (used a dish with the diameter of 60 mm) under the presence of MPMBP (1, 10, or 100 μM) or zoledronate (0.1, 0.5 or 2.00 μM). After completion of culturing, cells were scraped and using Trizol, RNA was extracted. From 5 μg of RNA, cDNA was synthesized, specific primers were set with respect to alkaline phosphatase, the type I-α collagen, osteocalcin, and bone sialoprotein genes, PCR amplification was performed in the thermal cycler, and the amount of expression of the above genes was measured."}, "[4]": {"system": "maxillary alveolar bone of a rabbit", "test": "Local subperiosteal injection at the maxillary alveolar bone of rabbits, pQCT and μCT analysis", "format": "in vivo", "experimental": "FIG. 2 is a proliferation of the bone induced on the maxillary alveolar bone of a rabbit resulting from local administration of MPMBP (administration of a 1 mM or 10 mM solution every 4 days for 6 times). (pQCT: peripheral Quantitative Computerized Tomography image). A horizontal section in the vicinity of the cervical site of the maxillary molar teeth. Exp: A test side (side to which MPMBP was administered), cont: a control side (side to which 0.9% NaCl was administered). Arrows represent injected sites.\nFIG. 3 is a proliferation of the bone induced on the maxillary alveolar bone of a rabbit resulting from local administration of MPMBP (administration of a 1 mM or 10 mM solution every 4 days for 6 times) (μCT image: microfocus Computerized Tomography image). A forehead cut of the midline region of the right and left maxillary first molars. exp: A test side (side to which MPMBP was administered). cont: A control side (side to which 0.9% NaCl was administered).\nA total of 9 Japanese male rabbits with the average weight of 2.2 kg were used and they were divided into 3 groups of 3 rabbits each. Under the periosteum of the palatal alveolar bone between the teeth of the maxillary first molar and the maxillary second molar on the left side (experiment side) of the domestic rabbits in each group, 50 μl of a 0.1, 1.0, or 10 mM MPMBP solution was injected every 4 days for 6 times (all performed under anesthesia using Nembutal). To the same sites on the opposite side (the right side), 50 μl of a physiological saline solution (0.9% NaCl solution) was injected in the same manner, and was set to be a control. On the 4th day after the final injection, the animals were euthanized with excessive administration of Nembutal, and the maxillary bone was removed and fixed with a 10% neutral formalin solution (pH 7.4). With the alveolar bone in the vicinity of drug administration sites and the palatine bone as the region of interest, 3-dimensional analysis was performed using a pQCT (peripheral Quantitative Computerized Tomography; FIG. 2) and a μCT (microfocus Computerized Tomography; FIG. 3). […] This type of the osteogenesis promoting effect of MPMBP in the living body has not been reported with the existing bisphosphonate compound."}, "[5]": {"conditions": "1, 10 and 100 μM, cultured 6, 10 or 20 days (FIG. 4)"}, "[6]": {"conditions": "50 μl of 1.0 mM or 10 mM solution under the periosteum every 4 days for 6 times, vs 0.9% NaCl on the opposite side"}, "[7]": {"conditions": "0.1, 1 and 10 μM, culture up to 3 weeks (FIG. 5)"}},
  "note": "Entries after “also recorded” stand apart in the source; their conditions may differ.",
  "data": [
    {"compound": "CSc1ccc(SC(P(=O)([O-])[O-])P(=O)(O)O)cc1.[Na+].[Na+]", "note": "[MPMBP, [4-(methylthio)phenylthio]-methanebisphosphonic acid.disodium salt]", "values": [
      {"measurement": "bone resorption resulting from LPS, size of the resorption cavity", "setting": "[1]; 48 hours, LPS, vs control bone (FIG. 7)", "result": "the bone resorption was inhibited resulting from LPS and the size of the resorption cavity that was formed from LPS was significantly smaller; also recorded: the bone resorption was inhibited resulting from LPS and the size of the resorption cavity that was formed by LPS was significantly small"},
      {"measurement": "production of the bone matrix (type I collagen, Alexa Fluor-488)", "setting": "[1]; 48 hours, presence or absence of LPS, vs control bone (FIG. 7)", "result": "production of the bone matrix (sites in green color) was promoted significantly; also recorded: production of the bone matrix (sites in green color) significantly increased"},
      {"measurement": "thickness of the bone mineral (alizarin red)", "setting": "[1]; 48 hours, vs control bone (FIG. 7)", "result": "the thickness of the bone mineral (sites in red color) was thick"},
      {"measurement": "production of the bone matrix (type I collagen)", "setting": "[1]; MPMBP 25 μM, 48 hours, DMEM, presence or absence of LPS 10 μg/ml, vs control bone (FIG. 6)", "result": "production of the bone matrix (sites in red color) was promoted significantly; also recorded: production of the bone matrix (type I collagen: sites in red) significantly increased"},
      {"measurement": "bone resorption resulting from LPS, size of the resorption cavity", "setting": "[1]; MPMBP 25 μM, 48 hours, LPS 10 μg/ml, vs control bone (FIG. 6)", "result": "the bone resorption was inhibited resulting from LPS and the size of a resorption cavity that was formed from LPS was significantly smaller; also recorded: the bone resorption was inhibited resulting from LPS and the size of the resorption cavity that was formed by LPS was significantly small"},
      {"measurement": "production of collagen (type I collagen fibers)", "setting": "[1]; 48 hours", "result": "a large amount of thick collagen fibers was produced in a fascicular shape and the bone surface was densely covered"},
      {"measurement": "concentration indicating the same level of the inhibitory action of the bone resorption in the bone organ culture system", "setting": "[1]; bone organ culture system", "result": 100, "unit": "µM"},
      {"measurement": "production of the type I collagen / bone matrix", "setting": "[1]; 48 hours", "result": "significantly promoted production of the bone matrix; also recorded: significantly increased production of the bone matrix"},
      {"measurement": "ALP activity (per well)", "setting": "MC3T3-E1 cells [2]; [5]", "result": "increase an alkaline phosphatase activity in a dose-dependent manner and with time; also recorded: increased the ALP activity in a dose-dependent manner and with time"},
      {"measurement": "expression of alkaline phosphatase, type I-α collagen, osteocalcin and bone sialoprotein genes", "setting": "MC3T3-E1 cells [3]; MPMBP 100 μM (1, 10, 100 μM tested), 3 days (72 hours) (FIG. 10)", "result": "promoted gene expression of all of the above; also recorded: increased significantly in all genes"},
      {"measurement": "bone changes (osteogenesis promoting effect) in the 0.1 mM group", "setting": "[4]; 0.1 mM, 50 μl every 4 days for 6 times", "result": "the effect was not clear"},
      {"measurement": "bone changes, 10 mM group compared to 1.0 mM group", "setting": "[4]; 10 mM vs 1.0 mM, 50 μl every 4 days for 6 times", "result": "stronger for the 10 mM administration group"},
      {"measurement": "bone addition to the palatal side of the alveolar bone (proliferation of the alveolar bone), pQCT", "setting": "[4]; [6]", "result": "a proliferation of the alveolar bone is observed; also recorded: bone addition to the palatal side of the alveolar bones"},
      {"measurement": "thickness of the palatine bone from the alveolar site to the middle of the palate, μCT", "setting": "[4]; [6]", "result": "the thickness of the palatine bone is increasing; also recorded: the thickness of the palatine bone increased"}
    ]},
    {"compound": "NCCCC(O)(P(=O)(O)O)P(=O)(O)O", "note": "[alendronate, reference compound]", "values": [
      {"measurement": "production of collagen (type I collagen fibers)", "setting": "[1]; 48 hours", "result": "production of the collagen increased were observed; however, the degree was small, compared to MPMBP"}
    ]},
    {"compound": "O=P(O)(O)C(Cl)(Cl)P(=O)(O)O", "note": "[clodronate]", "values": [
      {"measurement": "ALP activity (per well)", "setting": "MC3T3-E1 cells [2]; [5]", "result": "increase an alkaline phosphatase activity in a dose-dependent manner and with time; also recorded: increased the ALP activity"}
    ]},
    {"compound": "O=P(O)(O)C(NC1CCCCCC1)P(=O)(O)O", "note": "[incadronate]", "values": [
      {"measurement": "ALP activity (per well)", "setting": "MC3T3-E1 cells [2]; [7]", "result": "the alkaline phosphatase activity is inhibited or the alkaline phosphatase activity is not affected; also recorded: the ALP activity was significantly reduced in high concentration"}
    ]},
    {"compound": "NCCC(O)(P(=O)(O)O)P(=O)(O)O", "note": "[pamidronate]", "values": [
      {"measurement": "ALP activity (per well)", "setting": "MC3T3-E1 cells [2]; [7]", "result": "the alkaline phosphatase activity is inhibited or the alkaline phosphatase activity is not affected; also recorded: no significant change was observed"}
    ]},
    {"compound": "O=P(O)(O)C(O)(Cn1ccnc1)P(=O)(O)O", "note": "[zoledronate, reference compound]", "values": [
      {"measurement": "production of the type I collagen / bone matrix", "setting": "[1]; 48 hours", "result": "inhibited production of the type I collagen"},
      {"measurement": "ALP activity (per well)", "setting": "MC3T3-E1 cells [2]; [7]", "result": "the alkaline phosphatase activity is inhibited or the alkaline phosphatase activity is not affected; also recorded: the ALP activity was significantly reduced in high concentration"},
      {"measurement": "expression of alkaline phosphatase, type I-α collagen, osteocalcin and bone sialoprotein genes", "setting": "MC3T3-E1 cells [3]; zoledronate 0.1, 0.5 or 2.00 μM, 3 days (FIG. 11)", "result": "no significant change was caused to the amount of expression of these genes"},
      {"measurement": "expression of alkaline phosphatase, type I-α collagen, osteocalcin and bone sialoprotein genes", "setting": "MC3T3-E1 cells [3]; zoledronate 0.1, 0.5 or 2.00 μM, 3 days (FIG. 11), listed as Zoledronate", "result": "did not significantly affect gene expression of all of the above"}
    ]}
  ]
}
